Like-named read-outs stand apart in the source and are kept apart here.
Legend:
[1] = Drying rate of solvent impregnated in standard cotton samples at room temperature; format: physicochemical; settings: dried for 8 hours, room temperature (25° C.), relative humidity of 30%
Description: Each solvent used in Comparative Examples 1 to 7 and Examples 1 to 4 was evaluated for its drying rate at room temperature which is considered an important factor in dry-cleaning. The initial weight (A) of standard cotton samples was each measured. After impregnating each solvent or composition in a certain amount into the cotton samples, the weight (B) of the cotton samples was measured. A difference between weight (B) and weight (A) was calculated to determine the weight of each of the impregnated solvents. Then, the cotton samples in which each solvent was impregnated were dried for 8 hours under conditions of room temperature (25° C.) and a relative humidity of 30%. After drying, the weight of each cotton sample was measured and converted into a percentage relative to the initial impregnation weight to obtain a drying rate for each solvent.

Solubility in water = format: physicochemical
Text: There has been a limitation in the effectiveness of conventional solvents for dry-cleaning in removing water-based contaminants due to the hydrophobic property thereof. Accordingly, in order to relatively evaluate a cleaning effect on the removal of water-based contaminants, the water-containing capacity of solvents according to the present invention was compared with that of the conventional dry-cleaning solvents.

| Compound | Drying rate (%) [1] [%] | Solubility (20° C.) (Solubility in water) [g/ g/100 mL] | Solubility (20° C.) (Solubility in water; result in words) |
| --- | --- | --- | --- |
| O [Com. Ex. 1, Water] | 100 | – | – |
| ClC(Cl)=C(Cl)Cl [Com. Ex. 2, Perchloroethylene] | 100 | 0.015 | – |
| C[Si]1(C)O[Si](C)(C)O[Si](C)(C)O[Si](C)(C)O[Si](C)(C)O1 [Com. Ex. 4, Decamethyl-cyclopentasiloxane] | 100 | – | Insol- |
| COCC(O)CO (centres unmarked) [Com. Ex. 5, 3-Methoxy 1,2-propanol] | 10.53 | – | – |
| COCC(CO)OC (centres unmarked) [Com. Ex. 6, 2,3-Dimethoxy-1-propanol] | 95.29 | – | – |
| CC1(C)OCC(CO)O1 (centres unmarked) [Example 1, Acetone Glycerol] | 100 | – | soluble |
| CCC1(C)OCC(CO)O1 (centres unmarked) [Example 2, Glycerol-Methyl Ethyl Ketone Ketal] | 100 | – | soluble |
| CC(C)CC1(C)OCC(CO)O1 (centres unmarked) [Example 3, Glycerol-Methyl Isobuthyl Ketone Ketal] | 85.25 | – | – |
| CCCC1OCC(CO)O1 (centres unmarked) [Example 4, Glycerol-Butylaldehyde Acetal] | 90.3 | – | soluble |

From patent US8882853B2, “Environmentally-friendly solvent for washing and dry-cleaning, and laundry composition including the same” (LG Household & Health Care Ltd., priority 2011, dated 2014)
